Measurements reported in ChEMBL document CHEMBL3885861, “Open TG-GATES”.

Organism: Rattus norvegicus
Test: Open TG-GATES - Regimen: Single
Format: toxicity, organism-based, Sprague-Dawley
Set-up: regimen Single, gender Male, age 6 weeks
Conditions: in vivo, po, 6 mg/kg, route gavage, dose level Low; for APTT / Bas / Eos / Fbg / Hb / Ht / Lym / MCH / MCHC / MCV / Mono / Neu / PT / Plat / RBC / Ret / WBC: tissue Blood; for KIDNEY_L / KIDNEY_R / KIDNEY_TOTAL: tissue Kidney; for LIVER: tissue Liver; for A/G / ALP / ALT / AST / BUN / CRE / Ca / Cl / DBIL / GLC / IP / K / LDH / Na / PL / RALB / TBIL / TC / TG / TP / gamma-GTP: tissue Plasma

For `CC(C)NNC(=O)c1ccncc1` [IPRONIAZID], the TERMINAL_BW (3 h) was 204.8 g, the APTT (3 h) was 22.1 s and the Bas (3 h) was 0%. It also gave an Eos (3 h) of 1%, a Fbg (3 h) of 317 mg/dL and a Hb (3 h) of 13.4 g/dL. For the same compound, the Ht (3 h) was 38.8%, the Lym (3 h) was 77% and the MCH (3 h) was 21.1 pg. For the same compound, the MCHC (3 h) was 34.5%, the MCV (3 h) was 61.2 fL and the Mono (3 h) was 1.8%. The Neu (3 h) was 20%, the PT (3 h) was 16.3 s and the Plat (3 h) was 129.7 x10_4/uL. It also gave an RBC (3 h) of 634.8 x10_4/ul, a Ret (3 h) of 7.5% and a WBC (3 h) of 72.5 x10_2/uL. It also gave a KIDNEY_L (3 h) of 1 g, a KIDNEY_R (3 h) of 1 g and a KIDNEY_TOTAL (3 h) of 2 g. The LIVER (3 h) was 9.7 g, the A/G (3 h) was 1.2 and the ALP (3 h) was 1455.8 IU/L. For the same compound, the ALT (3 h) was 40.8 IU/L, the AST (3 h) was 83.8 IU/L and the BUN (3 h) was 13.4 mg/dL. It also gave a CRE (3 h) of 0.1 mg/dL, a Ca (3 h) of 10.6 mg/dL and a Cl (3 h) of 106.8 meq/L. It also gave a DBIL (3 h) of 0.002 mg/dL, a GLC (3 h) of 187.2 mg/dL and an IP (3 h) of 9 mg/dL. For the same compound, the K (3 h) was 4.1 meq/L, the LDH (3 h) was 208.2 IU/L and the Na (3 h) was 142 meq/L. For the same compound, the PL (3 h) was 132.4 mg/dL, the RALB (3 h) was 3.1 g/dL and the TBIL (3 h) was 0.016 mg/dL. The TC (3 h) was 67 mg/dL, the TG (3 h) was 73.2 mg/dL and the TP (3 h) was 5.6 g/dL. The gamma-GTP (3 h) was 1.4 IU/L, the TERMINAL_BW (6 h) was 201.3 g and the APTT (6 h) was 22.8 s. It also gave a Bas (6 h) of 0%, an Eos (6 h) of 0.6% and a Fbg (6 h) of 317 mg/dL. For the same compound, the Hb (6 h) was 13.1 g/dL, the Ht (6 h) was 38.4% and the Lym (6 h) was 78.8%. For the same compound, the MCH (6 h) was 20.9 pg, the MCHC (6 h) was 34.1% and the MCV (6 h) was 61.2 fL. For the same compound, the Mono (6 h) was 2.2%, the Neu (6 h) was 17.8% and the PT (6 h) was 15.6 s. It also gave a Plat (6 h) of 118.4 x10_4/uL, an RBC (6 h) of 627.2 x10_4/ul and a Ret (6 h) of 7.4%. It also gave a WBC (6 h) of 69.8 x10_2/uL, a KIDNEY_L (6 h) of 0.9 g and a KIDNEY_R (6 h) of 0.9 g. The KIDNEY_TOTAL (6 h) was 1.9 g, the LIVER (6 h) was 8.9 g and the A/G (6 h) was 1.2. It also gave an ALP (6 h) of 1305.2 IU/L, an ALT (6 h) of 36.8 IU/L and an AST (6 h) of 73.2 IU/L. For the same compound, the BUN (6 h) was 9.6 mg/dL, the CRE (6 h) was 0.2 mg/dL and the Ca (6 h) was 10.6 mg/dL. It also gave a Cl (6 h) of 106.8 meq/L, a DBIL (6 h) of 0.002 mg/dL and a GLC (6 h) of 182.4 mg/dL. For the same compound, the IP (6 h) was 9.2 mg/dL, the K (6 h) was 4.3 meq/L and the LDH (6 h) was 225.2 IU/L. For the same compound, the Na (6 h) was 141.6 meq/L, the PL (6 h) was 135.2 mg/dL and the RALB (6 h) was 3.1 g/dL. It also gave a TBIL (6 h) of 0.014 mg/dL, a TC (6 h) of 74.2 mg/dL and a TG (6 h) of 62.2 mg/dL. It also gave a TP (6 h) of 5.5 g/dL, a gamma-GTP (6 h) of 1 IU/L and a TERMINAL_BW (9 h) of 205.8 g. It also gave an APTT (9 h) of 22 s, a Bas (9 h) of 0% and an Eos (9 h) of 1%. The Fbg (9 h) was 323.2 mg/dL, the Hb (9 h) was 13.2 g/dL and the Ht (9 h) was 38.7%. The Lym (9 h) was 77.8%, the MCH (9 h) was 20.8 pg and the MCHC (9 h) was 34.1%. For the same compound, the MCV (9 h) was 60.9 fL, the Mono (9 h) was 2% and the Neu (9 h) was 18.6%. The PT (9 h) was 15.8 s, the Plat (9 h) was 120.2 x10_4/uL and the RBC (9 h) was 635.6 x10_4/ul. The Ret (9 h) was 7.8%, the WBC (9 h) was 99.2 x10_2/uL and the KIDNEY_L (9 h) was 0.9 g. For the same compound, the KIDNEY_R (9 h) was 1 g, the KIDNEY_TOTAL (9 h) was 1.9 g and the LIVER (9 h) was 8.7 g. For the same compound, the A/G (9 h) was 1.2, the ALP (9 h) was 1353 IU/L and the ALT (9 h) was 37.2 IU/L. For the same compound, the AST (9 h) was 72 IU/L, the BUN (9 h) was 12.8 mg/dL and the CRE (9 h) was 0.2 mg/dL. It also gave a Ca (9 h) of 10.4 mg/dL, a Cl (9 h) of 106.8 meq/L and a DBIL (9 h) of 0.004 mg/dL. It also gave a GLC (9 h) of 178.8 mg/dL, an IP (9 h) of 10 mg/dL and a K (9 h) of 4.2 meq/L. It also gave an LDH (9 h) of 172.6 IU/L, a Na (9 h) of 141.4 meq/L and a PL (9 h) of 130.6 mg/dL. For the same compound, the RALB (9 h) was 3 g/dL, the TBIL (9 h) was 0.014 mg/dL and the TC (9 h) was 74 mg/dL. For the same compound, the TG (9 h) was 72.2 mg/dL, the TP (9 h) was 5.5 g/dL and the gamma-GTP (9 h) was 1.4 IU/L. For the same compound, the TERMINAL_BW (24 h) was 218.2 g, the APTT (24 h) was 21.7 s and the Bas (24 h) was 0%. For the same compound, the Eos (24 h) was 1%, the Fbg (24 h) was 323.4 mg/dL and the Hb (24 h) was 13.2 g/dL. For the same compound, the Ht (24 h) was 38.3%, the Lym (24 h) was 83.8% and the MCH (24 h) was 21.2 pg. The MCHC (24 h) was 34.5%, the MCV (24 h) was 61.3 fL and the Mono (24 h) was 2.6%. For the same compound, the Neu (24 h) was 12.2%, the PT (24 h) was 16.6 s and the Plat (24 h) was 119.6 x10_4/uL. It also gave an RBC (24 h) of 624 x10_4/ul, a Ret (24 h) of 7.1% and a WBC (24 h) of 95 x10_2/uL. For the same compound, the KIDNEY_L (24 h) was 1 g, the KIDNEY_R (24 h) was 1 g and the KIDNEY_TOTAL (24 h) was 1.9 g. For the same compound, the LIVER (24 h) was 10.2 g, the A/G (24 h) was 1.2 and the ALP (24 h) was 1506.4 IU/L. The ALT (24 h) was 43.2 IU/L, the AST (24 h) was 74.6 IU/L and the BUN (24 h) was 15.2 mg/dL. For the same compound, the CRE (24 h) was 0.2 mg/dL, the Ca (24 h) was 10.7 mg/dL and the Cl (24 h) was 106.4 meq/L. For the same compound, the DBIL (24 h) was 0.004 mg/dL, the GLC (24 h) was 179.8 mg/dL and the IP (24 h) was 7.4 mg/dL. It also gave a K (24 h) of 4.6 meq/L, an LDH (24 h) of 255 IU/L and a Na (24 h) of 141.6 meq/L. The PL (24 h) was 148.8 mg/dL, the RALB (24 h) was 3 g/dL and the TBIL (24 h) was 0.008 mg/dL. It also gave a TC (24 h) of 83.2 mg/dL, a TG (24 h) of 98.8 mg/dL and a TP (24 h) of 5.5 g/dL. The gamma-GTP (24 h) was 1.6 IU/L.
